# Laboratory results published in ChEMBL document CHEMBL1770146, “Structure-activity relationship studies of novel 3-oxazolidinedione-6-naphthyl-2-pyridinones as potent and orally bioavailable EP3 receptor antagonists” (Bioorg Med Chem Lett, 2011).
# Activity calls are given as the source filed them. No cut-off for these calls is given here.
# Molecular target: T1, Prostaglandin E2 receptor EP3 subtype (Rattus norvegicus) (UniProt P34980)
# T1 sequence (whole entry): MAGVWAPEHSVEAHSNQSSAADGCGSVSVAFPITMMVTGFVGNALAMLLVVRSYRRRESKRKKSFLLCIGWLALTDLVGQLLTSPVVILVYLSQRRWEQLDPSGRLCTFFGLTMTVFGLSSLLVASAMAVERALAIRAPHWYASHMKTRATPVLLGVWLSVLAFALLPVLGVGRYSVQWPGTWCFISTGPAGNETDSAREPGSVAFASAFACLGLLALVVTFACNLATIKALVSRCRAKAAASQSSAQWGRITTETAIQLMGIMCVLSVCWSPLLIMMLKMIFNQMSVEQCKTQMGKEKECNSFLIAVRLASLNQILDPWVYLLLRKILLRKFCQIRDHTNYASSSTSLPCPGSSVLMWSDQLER
# Test: Antagonist activity at rat EP3 receptor
# Format: functional
# Conditions: not given
row,SMILES,Activity
1,CC(C)C1(c2ccc(-c3ccc4ccccc4c3)[nH]c2=O)OC(=O)NC1=O (centres undefined),Active

# Species: Canis lupus familiaris
# Test: Antagonist activity at dog EP3 receptor
# Format: functional
# Conditions: not given
row,SMILES,Activity
1,CC(C)C1(c2ccc(-c3ccc4ccccc4c3)[nH]c2=O)OC(=O)NC1=O (centres undefined),Active

# Tested on: not listed separately
# Test: Half life in Sprague-Dawley rat at 1 mg/kg, iv and 2 mg/kg, po
# Format: ADME, organism-based
# Conditions: in vivo
row,SMILES,half-life [h]
1,Cc1cc(C2(C(C)C)OC(=O)NC2=O)c(=O)[nH]c1-c1ccc2ccccc2c1 (centres undefined),6.6
2,CC(C)C1(c2ccc(-c3ccc4ccccc4c3)[nH]c2=O)OC(O)=NC1=O (centres undefined),3.5
3,CC(C)C1(c2cc(Cl)c(-c3ccc4ccccc4c3)[nH]c2=O)OC(=O)NC1=O (centres undefined),5.3

# Tested on: not listed separately
# Test: Oral bioavailability in Sprague-Dawley rat at 2 mg/kg
# Format: ADME, organism-based
# Conditions: in vivo
row,SMILES,bioavailability [%]
1,Cc1cc(C2(C(C)C)OC(=O)NC2=O)c(=O)[nH]c1-c1ccc2ccccc2c1 (centres undefined),100
2,CC(C)C1(c2ccc(-c3ccc4ccccc4c3)[nH]c2=O)OC(O)=NC1=O (centres undefined),100
3,CC(C)C1(c2cc(Cl)c(-c3ccc4ccccc4c3)[nH]c2=O)OC(=O)NC1=O (centres undefined),86

# Tested on: not listed separately
# Test: Clearance in Sprague-Dawley rat at 1 mg/kg, iv and 2 mg/kg, po
# Format: ADME, organism-based
# Conditions: in vivo
row,SMILES,clearance [mL/min/kg]
1,Cc1cc(C2(C(C)C)OC(=O)NC2=O)c(=O)[nH]c1-c1ccc2ccccc2c1 (centres undefined),1.4
2,CC(C)C1(c2ccc(-c3ccc4ccccc4c3)[nH]c2=O)OC(O)=NC1=O (centres undefined),5.1
3,CC(C)C1(c2cc(Cl)c(-c3ccc4ccccc4c3)[nH]c2=O)OC(=O)NC1=O (centres undefined),1.2

# Molecular target: T2, Prostaglandin E2 receptor EP3 subtype (Homo sapiens, UniProt P43115)
# T2 sequence (P43115 whole entry): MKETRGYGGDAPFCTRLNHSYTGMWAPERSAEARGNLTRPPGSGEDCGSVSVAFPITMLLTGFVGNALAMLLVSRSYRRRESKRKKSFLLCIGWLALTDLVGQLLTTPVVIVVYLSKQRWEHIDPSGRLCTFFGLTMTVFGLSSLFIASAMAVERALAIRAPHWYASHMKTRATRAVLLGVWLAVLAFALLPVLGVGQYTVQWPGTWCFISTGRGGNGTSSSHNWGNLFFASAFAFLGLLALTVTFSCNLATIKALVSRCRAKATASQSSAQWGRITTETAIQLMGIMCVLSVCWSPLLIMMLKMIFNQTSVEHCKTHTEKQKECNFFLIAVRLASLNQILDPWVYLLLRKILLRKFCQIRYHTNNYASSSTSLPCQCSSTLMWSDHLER
# Test: Antagonist activity at human EP3 receptor expressed in CHO cells assessed as inhibition of PGE2-induced increase in intracellular calcium concentration after 1 hr by FLIPR assay
# Format: functional, cell-based
# Conditions: not given
row,SMILES,Ki [nM]
1,CC(C)C1(c2c[nH]c(-c3ccc4ccccc4c3)cc2=O)OC(=O)NC1=O (centres undefined),794
2,O=C1NC(=O)C(c2ccc(-c3ccc4ccccc4c3)[nH]c2=O)(C2CCOCC2)O1 (centres undefined),200
3,O=C1NC(=O)C(c2ccc(-c3ccc4ccccc4c3)[nH]c2=O)(C2CCCC2)O1 (centres undefined),7.94
4,CC(C)[C@]1(c2ccc(-c3ccc4ccccc4c3)[nH]c2=O)OC(=O)NC1=O,20
5,CC1(c2ccc(-c3ccc4ccccc4c3)cc2O)OC(=O)NC1=O (centres undefined),1260
6,CC(C)[C@@]1(c2ccc(-c3ccc4ccccc4c3)[nH]c2=O)OC(=O)NC1=O,7.94
7,CC(C)C1(c2cc(-c3ccccc3)c(-c3ccc4ccccc4c3)[nH]c2=O)OC(=O)NC1=O (centres undefined),2510
8,O=C1NC(=O)C(c2ccccc2)(c2ccc(-c3ccc4ccccc4c3)[nH]c2=O)O1 (centres undefined),31.6
9,COc1cc(-c2ccc3ccccc3c2)ccc1C1(C)OC(=O)NC1=O (centres undefined),3160
10,Cc1cc(C2(C(C)C)OC(=O)NC2=O)c(=O)[nH]c1-c1ccc2ccccc2c1 (centres undefined),6.31
11,CC1(c2ccc(-c3ccc4ccccc4c3)[nH]c2=O)OC(=O)NC1=O (centres undefined),20
12,CC1(c2ccc(-c3ccc4ccccc4c3)[nH]c2=O)CNC(=O)O1 (centres undefined),79.4
13,CC(C)N1C(=O)OC(C)(c2ccc(-c3ccc4ccccc4c3)[nH]c2=O)C1=O (centres undefined),1580
14,CC(C)C1(c2cc(Br)c(-c3ccc4ccccc4c3)[nH]c2=O)OC(=O)NC1=O (centres undefined),39.8
15,CC(C)C1(c2cc(C(F)(F)F)c(-c3ccc4ccccc4c3)[nH]c2=O)OC(=O)NC1=O (centres undefined),631
16,O=C1NC(=O)C(c2ccc(-c3ccc4ccccc4c3)[nH]c2=O)(C2CCCCC2)O1 (centres undefined),7.94
17,CC1(c2ccc(-c3ccc4ccccc4c3)[nH]c2=O)CNC(=O)N1 (centres undefined),39.8
18,Cn1c(-c2ccc3ccccc3c2)ccc(C2(C)OC(=O)NC2=O)c1=O (centres undefined),> 25100
19,O=C1NC(=O)C(c2ccc(-c3ccc4ccccc4c3)[nH]c2=O)(C(F)(F)F)O1 (centres undefined),126
20,CC(C)C1(c2ccc(-c3ccc4ccccc4c3)nc2)OC(=O)NC1=O (centres undefined),> 25100
21,CC(C)C1(c2cc(Cl)c(-c3ccc4ccccc4c3)[nH]c2=O)OC(=O)NC1=O (centres undefined),50.1
22,O=C1NC(=O)C(Cc2ccccc2)(c2ccc(-c3ccc4ccccc4c3)[nH]c2=O)O1 (centres undefined),15.8
23,O=C1NC(=O)C(c2ccc(-c3ccc4ccccc4c3)[nH]c2=O)(C2CC2)O1 (centres undefined),50.1
24,CC1(c2ccc(-c3ccc4ccccc4c3)[nH]c2=O)NC(=O)NC1=O (centres undefined),316
25,CN1C(=O)OC(C)(c2ccc(-c3ccc4ccccc4c3)[nH]c2=O)C1=O (centres undefined),501

# Tested on: Rattus norvegicus
# Test: Dose normalized AUC in Sprague-Dawley rat at 2 mg/kg, po
# Format: ADME, organism-based
# Parameters: dose 2 mg/kg, route oral
# Conditions: in vivo
row,SMILES,AUC [ng·h/mL]
1,Cc1cc(C2(C(C)C)OC(=O)NC2=O)c(=O)[nH]c1-c1ccc2ccccc2c1 (centres undefined),13500
2,CC(C)C1(c2ccc(-c3ccc4ccccc4c3)[nH]c2=O)OC(O)=NC1=O (centres undefined),4400
3,CC(C)C1(c2cc(Cl)c(-c3ccc4ccccc4c3)[nH]c2=O)OC(=O)NC1=O (centres undefined),12900
